Data on two compounds can be found in patent US20160095845A1, “COMPOSITION COMPRISING (S)-(-)-BENPROPERINE FOR PREVENTING OR TREATING CANCER” (KOREA RESEARCH INSTITUTE OF BIOSCIENCE AND BIOTECHNOLOGY, priority 2014, published 2016).

For data set [1], the system named is DLD-1 cells, PRL-3 over-expressed colorectal cancer cell line. The experiment in a line: Transwell cell migration assay. It counts as cell-based, human. As to conditions: for inhibition at 0.5 µM: DLD-1, 0.5 μM (FIG. 3b); for inhibition at 0.5 µM / inhibition at 5 µM: compared to DMSO-treated control; for inhibition at 5 µM: DLD-1, 5 μM (FIG. 3a). The method, then: (§1) To analyze inhibitory activity against the migration and invasion of (S)-(−)-benproperine cancer cells, a cell migration and invasion assay was caned out using DLD-1 cells (ATCC-CCL-221), a PRL-3 over-expressed colorectal cancer cell line, using a transwell as described below.
(§2) First, DLD-1 cells (ATCC-CCL-221) were allowed to grow to about 90% in a culturing plate containing an RPMI medium, then removed from the medium and washed with PBS. The washed cells were treated with trypsin-EDTA and cultured in a CO2 incubator at 37° C. for […] to detach the cells. Then an RPMI medium containing 10% FBS was added thereto, and the cells were collected in a Falcon tube and centrifuged to remove the medium. The thus-obtained cells were charged with an FBS-free RPMI medium and centrifuged to remove the medium, and these step were repeated twice. The thus-obtained cells were charged with an FBS-free RPMI medium and then suspended to measure the number of cells using a hemocytometer.
(§3) Thereafter, the transwell was placed on top of a 24-well plate and charged with cells of 8×10^4 cell/200 The transwell was charged with 500 μL of an FBS-free RPMI medium containing the (S)-(−)-benproperine, prepared in Example 1, through the gap, and cultured in a CO2 incubator at 37° C. for 12 hours to 16 hours. After culturing, the transwell was turned upside down on a hand towel to remove the medium, then each well of the 24-well plate was charged with 500 μL of crystal violet (5 mg/mL in 20% MeOH). The transwell was placed back on top of the 24-well plate and incubated in a CO2 incubator for 30 minutes. The stained transwell was washed with PBS and turned upside down on a hand towel to let the remaining solution infiltrate into the hand towel. A region where the cells had not moved was labeled as the top of a film by placing a cover slip on top of the film, and the cells that had not moved were wiped off with a cotton swab. A small amount of nail polish was applied to the edge of the cover slip, and a slide glass was placed on top to fix the cover slip. The thus-prepared sample was photographed using an inverted microscope (TE 300, Nikon, Japan) with a digital camera installed, and the number of migrated cells was calculated.
Subsequently, cell migration inhibition was calculated via Mathematical Formula 1 shown below.
(§4) According to the Mathematical Formula 1 above, “the number of migrated cells in sample-treated group” refers to a number of migrated cells measured after treating DLD-1 with (S)-(−)-benproperine (S-Benp) prepared in Example 1, (R)-(+)-benproperine (R-Benp) prepared in Comparative Example 1, or a mixed racemate having a 1:1 weight ratio of (S)-(−)-benproperine to (R)-(+)-benproperine, and “the number of migrated cells in control group” refers to a number of migrated cells measured after treating DLD-1 with 1% dimethyl sulfoxide (DMSO) alone, instead of benproperine.

For data set [2] the test system is unchanged. The experiment in a line: Transwell cell invasion assay. It counts as cell-based. As to conditions: Homo sapiens; for inhibition at 1 µM: DLD-1, 1 μM (FIG. 5b); for inhibition at 1 µM / inhibition at 5 µM: compared to DMSO-treated control; for inhibition at 2 µM: DLD-1, 2 μM (FIG. 5b); for inhibition at 5 µM: DLD-1, 5 μM (FIG. 5a). The method, then: as §1, §2, §3, §4

The subject of data set [3] is cancer cells (DLD-1, AsPc-1, B16-BL6). The experiment in a line: Cytotoxicity assay (WST-1). As to conditions: 5 μM, 48 hours. It counts as cell-based. The method, then: (§5) To verify the cytotoxicity of (S)-(−)-benproperine, prepared in Example 1, DLD-1 cells (ATCC-CCL-221), a human colorectal cancer cell line, AsPc-1′ cells (ATCC-CRL-1682), a pancreatic cancer cell line, B16-BL6 cells (ATCC-CRL-6475), a melanoma cell line, and normal cells of MCF10A (ATCC-CRL-10317) were cultured in an RPM medium containing 10% fetal bovine serum (FBS) while maintaining a temperature at 37° C. and 5% CO2, and the cells were then detached from the medium using 0.05% trypsin-EDTA. Each well of a 96-well plate including the medium containing 10% FBS was inoculated with 410^3 cells, calculated with a hemocytometer, and the cells were cultured in an incubator containing 5% CO2 at 37° C.
(§6) After 24 hours, the medium of each well was replaced with a new medium containing a control group (0.1% DMSO) and 5 μM of benproperine, prepared in either of Example 1 or Comparative Example 1. The cells in the new media were then cultured in an incubator containing 5% CO2 at 37° C. for 48 hours. Each well was then charged with 10 μL of WST-1 (Roche), culturing was continued for 2 hours, and absorbance was measured at 450 nm by ELISA Reader (Bio-Rad).
(Tetrazolium dyes change colour on reduction, which living cells bring about.)

In the next data set the test system is normal cells of MCF10A. The experiment in a line: Cytotoxicity assay (WST-1). It counts as cell-based. As to conditions: 5 μM, 48 hours. On the procedure: as §5, §6
The test system of the next data set is MCF10A cells. The experiment in a line: Transwell cell migration assay, normal cells. It counts as cell-based. As to conditions: 10 μM (FIG. 4).
A short description of data set [4]: Acute toxicity experiment of oral administration on rats. As to conditions: SD, in vivo, 1000 mg/kg; rat, oral; read-out: minimum lethal oral dose (LD50). On the procedure: (§7) 6-week-old specific pathogen free SD type rats were divided into groups, where each group contains two rats. The (S)-(−)-benproperine, prepared in Example 1, was dissolved in water for injection, and orally administered to each rat once at a volume of 1000 mg/kg.

Another data set concerns SD type rats. Described as above. As to conditions: rat, in vivo, po, 1000 mg/kg. On the procedure: as §7

For orientation: inhibition means the change of the read-out against control, counted positive when it falls. Higher therefore signals strong suppression. For `CC(COc1ccccc1Cc1ccccc1)N1CCCCC1` (racemic) [racemate, 1-[1-(2-benzylphenoxy)propan-2-yl]piperidine, reference compound], in data set [1] (Homo sapiens), the inhibition at 0.5 µM amounted to 3% and the inhibition at 5 µM came out at 71%. Moreover, at 2 µM the inhibition in data set [1] (Homo sapiens, DLD-1, 2 μM (FIG. 3b)) was 53%. In data set [2], at 1 µM the inhibition was 21%, the inhibition at 2 µM amounted to 36% and testing at 5 µM gave an inhibition of 73%.
`C[C@@H](COc1ccccc1Cc1ccccc1)N1CCCCC1` [(S)-(−)-benproperine]: the cytotoxicity entry in data set [3] was “did not exhibit the cytotoxicity”. Moreover, the cytotoxicity entry in the data set on normal cells of MCF10A is given as “did not exhibit the cytotoxicity”. In addition, the “inhibitory activity against cell migration relative to the racemate” value in data set [1] (DLD-1, 52% at 1 μM vs racemate 53% at 2 μM) is on record as “twice as much inhibitory activity against the cell migration as the racemate”. In data set [1] (Homo sapiens), the inhibition at 0.5 µM was 32% and at 5 µM the inhibition was 89%. The inhibition at 1 µM in data set [1] (Homo sapiens, DLD-1, 1 μM (FIG. 3b)) came out at 52%. Moreover, the “inhibition of migration of normal cells” value in the data set on MCF10A cells was “did not inhibit the migration”. Also, in data set [2], 1 µM produced 36% inhibition, the inhibition at 2 µM turned out to be 57% and the inhibition at 5 µM was 90%. The highest tested oral dose (no deaths) in data set [4] was determined as 1000 mg/kg. In the data set with SD type rats, the animal death entry is “none died”; the clinical symptoms entry is listed as “showed noteworthy clinical symptoms”; the “toxicity in weight fluctuation, hematological and blood biochemical examinations, post-mortem reports” value is recorded as “nor showed any toxicity”.
